Test results as given in patent US20100331348A1, “TROPANE DERIVATIVES USEFUL AS PESTICIDES” (SYNGENTA CROP PROTECTION, INC., priority 2007, published 2010).
Like-named read-outs stand apart in the source and are kept apart here.

Tests used:
Phytophthora infestans = assay: whole plant or invertebrate; assay type: in vivo; conditions: foliar, 96 h, read-out: control of fungal infection, Phytophthora infestans
Plasmopara viticola = Plasmopara viticola (downy mildew of grapevine) leaf disk assay; assay type: in vivo; conditions: foliar, 168 h, preventive, seven days after inoculation, read-out: control of fungal infection, Plasmopara viticola
[1] = tested on: Erysiphe graminis f.sp. tritici; assay: Erysiphe graminis f.sp. tritici (wheat powdery mildew) leaf disk assay; assay type: in vivo; conditions: Blumeria graminis, foliar, 96 h, preventive, four days after inoculation, read-out: control of fungal infection, Erysiphe graminis fsp. tritici
Plutella xylostella = Plutella xylostella (Diamond back moth) artificial diet test; conditions: 120 h, read-out: control of Plutella xylostella
Aedes aegypti = Aedes aegypti (Yellow fever mosquito) larvae test; assay type: in vivo; conditions: 48 h
Pyricularia oryzae = assay: whole plant or invertebrate; assay type: in vivo; conditions: foliar, 96 h
[2] = tested on: Puccinia recondita f.sp. tritici; assay: Puccinia recondita f.sp. tritici (wheat brown rust) leaf disk assay; assay type: in vivo; conditions: foliar, 216 h, preventive, nine days after inoculation, read-out: control of fungal infection, Puccinia recondita f.sp. tritici
[3] = read-out: control of fungal infection, Pyricularia oryzae (at least 60% list)
[4] = read-out: control of fungal infection, Pyricularia oryzae (at least 80% list)

Row | SMILES | melting point [°C] | pest or weed control at 200 ppm (Plasmopara viticola) [%] | pest or weed control at 200 ppm [1] [%] | further results
1 | COc1cc(C(C)=O)ccc1OC1C[C@H]2CC[C@@H](C1)N2c1ncnc2sccc12 (some centres unmarked) | 171 | – | – | –
2 | CCc1ncnc(N2[C@@H]3CC[C@H]2CC(O)C3)c1Cl (some centres unmarked) | 104 | – | – | –
3 | Cc1nn(C)c2nccc(N3[C@@H]4CC[C@H]3CC(Oc3ccc(Cl)cc3)C4)c12 (some centres unmarked) | 155 | – | – | –
4 | CCc1ncnc(N2[C@@H]3CC[C@H]2CC(ON)C3)c1Cl (some centres unmarked) | 70 | – | – | –
5 | Cc1noc2ncnc(N3[C@@H]4CC[C@H]3CC(Oc3cc(C(F)(F)F)ccn3)C4)c12 (some centres unmarked) | 192 | – | – | –
6 | Cc1noc2ncnc(N3[C@@H]4CC[C@H]3CC(Oc3ccc(C(F)(F)F)cn3)C4)c12 (some centres unmarked) | 238 | – | – | –
7 | N#Cc1c(Cl)nsc1N1[C@@H]2CC[C@H]1CC(Oc1cccc(C(F)(F)F)n1)C2 (some centres unmarked) | 158 | – | – | –
8 | N#Cc1sc(N2[C@@H]3CC[C@H]2CC(Oc2cccc(C(F)(F)F)n2)C3)nc1C(F)(F)F (some centres unmarked) | 147 | – | – | –
9 | FC(F)(F)c1ccc(OC2C[C@H]3CC[C@@H](C2)N3c2ccnc3cc(Cl)ccc23)nc1 (some centres unmarked) | 107 | – | – | –
10 | N#Cc1sc(N2[C@@H]3CC[C@H]2CC(Oc2cc(C(F)(F)F)ccn2)C3)nc1C(F)(F)F (some centres unmarked) | 129 | – | – | –
11 | N#Cc1c(Cl)nsc1N1[C@@H]2CC[C@H]1CC(Oc1ccc(C(F)(F)F)cn1)C2 (some centres unmarked) | 157 | – | – | –
12 | N#Cc1sc(N2[C@@H]3CC[C@H]2CC(Oc2ccc(C(F)(F)F)cn2)C3)nc1C(F)(F)F (some centres unmarked) | 135 | – | – | –
13 | Cn1cc(C(=O)N2[C@@H]3CC[C@H]2CC(Oc2cc(C(F)(F)F)ccn2)C3)c(C(F)(F)F)c1 (some centres unmarked) | 183 | – | – | –
14 | Clc1ccc(OC2C[C@H]3CC[C@@H](C2)N3c2ncnc3sccc23)cc1 (some centres unmarked) | 184 | – | – | –
15 | FC(F)(F)c1ccnc(OC2C[C@H]3CC[C@@H](C2)N3c2ncnc3ccsc23)c1 (some centres unmarked) | 211 | – | – | –
16 | Cc1csc2c(N3[C@@H]4CC[C@H]3CC(Oc3cc(C(F)(F)F)ccn3)C4)ncnc12 (some centres unmarked) | 76 | – | – | –
17 | CCc1ncnc(N2C3CCC2CC(=CC(=O)O)C3)c1Cl | 162 | – | – | –
18 | CC(=O)NC1C[C@H]2CC[C@@H](C1)N2c1ncnc2sccc12 (some centres unmarked) | 196 | – | – | –
19 | O=C(NC1C[C@H]2CC[C@@H](C1)N2c1ncnc2sccc12)c1cccnc1 (some centres unmarked) | 170 | – | – | –
20 | CCc1ncnc(N2C3CCC2CC(=NO)C3)c1Cl | 73 | – | – | –
21 | Cc1nn(C)c2nccc(N3C4CCC3CC(=NO)C4)c12 | 201 | – | – | –
22 | CCc1ncnc(N2C3CCC2CC(CC(N)=O)C3)c1Cl (centres unmarked) | 101 | – | – | –
23 | CCc1ncnc(N2C3CCC2CC(CC(N)=S)C3)c1Cl (centres unmarked) | 160 | – | – | –
24 | CCc1ncnc(N2C3CCC2CC(CC(=O)O)C3)c1Cl (centres unmarked) | 109 | – | – | –
25 | O=C(O)CC1CC2CCC(C1)N2c1ncnc2sccc12 (centres unmarked) | 181 | – | – | –
26 | O=C1c2ccccc2C(=O)N1OC1C[C@H]2CC[C@@H](C1)N2c1ncnc2sccc12 (some centres unmarked) [1.73] | 243 | – | – | –
27 | Cn1cc(C(=O)N2[C@@H]3CC[C@H]2CC(Oc2ccc(C(F)(F)F)cn2)C3)c(C(F)(F)F)c1 (some centres unmarked) [2.218] | 147 | – | – | –

Row | SMILES | melting point [°C] | pest or weed control at 200 ppm (Plasmopara viticola) [%] | pest or weed control at 200 ppm [1] [%] | further results
28 | Cn1cc(C(=O)N2[C@@H]3CC[C@H]2CC(Oc2ccc(C(F)(F)F)cn2)C3)c(C(F)(F)F)c1 (some centres unmarked) [2.223] | 153 | – | – | –
29 | Cc1nc(OC2C[C@H]3CC[C@@H](C2)N3c2ncnc3sccc23)cc(N(C)C)n1 (some centres unmarked) [Example 1.53] | – | ≥ 80 | – | pest or weed control at 200 ppm (Phytophthora infestans): ≥ 80%
30 | CS(=O)(=O)OC1C[C@H]2CC[C@@H](C1)N2c1ncnc2sccc12 (some centres unmarked) [Example 2.10] | 135 | – | ≥ 80 | –
31 | FC(F)(F)c1cccc(OC2C[C@H]3CC[C@@H](C2)N3c2cc(Cl)ncn2)n1 (some centres unmarked) [Example 2.90] | 136 | – | ≥ 80 | –
32 | Cc1nn(C)c2nccc(N3[C@@H]4CC[C@H]3CC(Oc3nc(C(F)(F)F)cs3)C4)c12 (some centres unmarked) [Example 2.107] | 184 | – | ≥ 80 | –
33 | N#Cc1c(Cl)nsc1N1[C@@H]2CC[C@H]1CC(Oc1cc(C(F)(F)F)ccn1)C2 (some centres unmarked) [Example 2.196] | 103 | – | ≥ 80 | –
34 | Cc1nsc(N2[C@@H]3CC[C@H]2CC(Oc2ccc(C(F)(F)F)cn2)C3)c1Cl (some centres unmarked) [Example 2.199] | 46 | – | ≥ 80 | –
35 | Cn1nc(C(F)(F)F)cc1C(=O)N1[C@@H]2CC[C@H]1CC(Oc1cc(C(F)(F)F)ccn1)C2 (some centres unmarked) [Example 2.217] | 122 | – | ≥ 80 | –
36 | Fc1cccc(OCC=C2CC3CCC(C2)N3c2ncnc3sccc23)c1 [Example 3.38] | – | ≥ 80 | – | pest or weed control at 200 ppm (Plutella xylostella): ≥ 80%; pest or weed control at 2 ppm (Aedes aegypti): ≥ 80%; pest or weed control at 200 ppm (Pyricularia oryzae; [3]): ≥ 60%; pest or weed control at 200 ppm (Pyricularia oryzae; [4]): ≥ 80%; pest or weed control at 200 ppm [2]: ≥ 80%
37 | CCc1ncnc(C(C)c2ncnc(N3C4CCC3CC(=NO)C4)c2Cl)c1Cl (centres unmarked) [Example 5.4] | 162 | – | ≥ 80 | –
38 | CCc1ccc(CON=C2CC3CCC(C2)N3c2ncnc(CC)c2Cl)cc1 [Example 5.17] | – | ≥ 80 | ≥ 80 | pest or weed control at 200 ppm (Phytophthora infestans): ≥ 80%; pest or weed control at 200 ppm (Plutella xylostella): ≥ 80%; pest or weed control at 2 ppm (Aedes aegypti): ≥ 80%; pest or weed control at 200 ppm [2]: ≥ 80%
39 | CCc1ncnc(N2C3CCC2CC(=NOCc2ccc(Br)cc2)C3)c1Cl [Example 5.19] | – | ≥ 80 | ≥ 80 | pest or weed control at 200 ppm (Phytophthora infestans): ≥ 80%; pest or weed control at 200 ppm (Plutella xylostella): ≥ 80%; pest or weed control at 200 ppm [2]: ≥ 80%
40 | Clc1ccccc1CON=C1CC2CCC(C1)N2c1ncnc2sccc12 [Example 5.141] | – | ≥ 80 | ≥ 80 | pest or weed control at 200 ppm (Phytophthora infestans): ≥ 80%; pest or weed control at 200 ppm (Plutella xylostella): ≥ 80%; pest or weed control at 2 ppm (Aedes aegypti): ≥ 80%; pest or weed control at 200 ppm (Pyricularia oryzae; [3]): ≥ 60%; pest or weed control at 200 ppm [2]: ≥ 80%
41 | Clc1ccc(CON=C2CC3CCC(C2)N3c2ncnc3sccc23)cc1 [Example 5.142] | – | ≥ 80 | ≥ 80 | pest or weed control at 200 ppm (Plutella xylostella): ≥ 80%; pest or weed control at 2 ppm (Aedes aegypti): ≥ 80%; pest or weed control at 200 ppm (Pyricularia oryzae; [3]): ≥ 60%; pest or weed control at 200 ppm [2]: ≥ 80%
42 | Cc1ccccc1CON=C1CC2CCC(C1)N2c1ncnc2sccc12 [Example 5.155] | – | ≥ 80 | ≥ 80 | pest or weed control at 200 ppm (Plutella xylostella): ≥ 80%; pest or weed control at 2 ppm (Aedes aegypti): ≥ 80%; pest or weed control at 200 ppm (Pyricularia oryzae; [3]): ≥ 60%; pest or weed control at 200 ppm [2]: ≥ 80%
43 | Cc1cccc(CON=C2CC3CCC(C2)N3c2ncnc3sccc23)c1 [Example 5.157] | – | ≥ 80 | ≥ 80 | pest or weed control at 200 ppm (Phytophthora infestans): ≥ 80%; pest or weed control at 200 ppm (Pyricularia oryzae; [3]): ≥ 60%; pest or weed control at 200 ppm [2]: ≥ 80%
44 | Clc1ccc(CON=C2CC3CCC(C2)N3c2ncnc3sccc23)cc1Cl [Example 5.169] | – | ≥ 80 | ≥ 80 | pest or weed control at 200 ppm (Plutella xylostella): ≥ 80%; pest or weed control at 200 ppm (Pyricularia oryzae; [3]): ≥ 60%; pest or weed control at 200 ppm (Pyricularia oryzae; [4]): ≥ 80%; pest or weed control at 200 ppm [2]: ≥ 80%
45 | Fc1ccc(C(F)(F)F)cc1CON=C1CC2CCC(C1)N2c1ncnc2sccc12 [Example 5.238] | – | ≥ 80 | ≥ 80 | pest or weed control at 200 ppm (Plutella xylostella): ≥ 80%; pest or weed control at 2 ppm (Aedes aegypti): ≥ 80%; pest or weed control at 200 ppm (Pyricularia oryzae; [3]): ≥ 60%; pest or weed control at 200 ppm [2]: ≥ 80%
46 | Clc1cc2c(cc1CON=C1CC3CCC(C1)N3c1ncnc3sccc13)OCO2 [Example 5.250] | – | ≥ 80 | ≥ 80 | pest or weed control at 2 ppm (Aedes aegypti): ≥ 80%; pest or weed control at 200 ppm [2]: ≥ 80%
47 | Clc1ccc(-c2nc(CON=C3CC4CCC(C3)N4c3ncnc4sccc34)cs2)cc1 [Example 5.255] | – | ≥ 80 | ≥ 80 | pest or weed control at 200 ppm (Phytophthora infestans): ≥ 80%; pest or weed control at 2 ppm (Aedes aegypti): ≥ 80%; pest or weed control at 200 ppm [2]: ≥ 80%
48 | Cc1nn(C)c2nccc(N3C4CCC3CC(=NOc3ncc(C(F)(F)F)cc3Cl)C4)c12 [Example 5.261] | 153 | – | ≥ 80 | –
49 | CC1(C)COC2(CC3CCC(C2)N3c2ncnc3sccc23)O1 (centres unmarked) [Example 6.2] | – | ≥ 80 | ≥ 80 | pest or weed control at 200 ppm (Phytophthora infestans): ≥ 80%; pest or weed control at 200 ppm [2]: ≥ 80%
50 | c1ccc(C2COC3(CC4CCC(C3)N4c3ncnc4sccc34)O2)cc1 (centres unmarked) [Example 6.7] | – | ≥ 80 | ≥ 80 | pest or weed control at 2 ppm (Aedes aegypti): ≥ 80%; pest or weed control at 200 ppm (Pyricularia oryzae; [3]): ≥ 60%; pest or weed control at 200 ppm (Pyricularia oryzae; [4]): ≥ 80%; pest or weed control at 200 ppm [2]: ≥ 80%
51 | ClCC1COC2(CC3CCC(C2)N3c2ncnc3sccc23)O1 (centres unmarked) [Example 6.8] | – | ≥ 80 | ≥ 80 | pest or weed control at 2 ppm (Aedes aegypti): ≥ 80%; pest or weed control at 200 ppm [2]: ≥ 80%
52 | CCC1COC2(CC3CCC(C2)N3c2ncnc3sccc23)O1 (centres unmarked) [Example 6.9] | – | ≥ 80 | ≥ 80 | pest or weed control at 2 ppm (Aedes aegypti): ≥ 80%; pest or weed control at 200 ppm [2]: ≥ 80%
53 | FC(F)(F)c1csc(CC2CC3CCC(C2)N3c2ncnc3sccc23)n1 (centres unmarked) [Example 7.18] | – | ≥ 80 | – | pest or weed control at 2 ppm (Aedes aegypti): ≥ 80%; pest or weed control at 200 ppm (Pyricularia oryzae; [3]): ≥ 60%; pest or weed control at 200 ppm (Pyricularia oryzae; [4]): ≥ 80%; pest or weed control at 200 ppm [2]: ≥ 80%
54 | Clc1ccc(-c2csc(CC3CC4CCC(C3)N4c3ncnc4sccc34)n2)cc1 (centres unmarked) [Example 7.19] | – | ≥ 80 | – | pest or weed control at 200 ppm (Plutella xylostella): ≥ 80%; pest or weed control at 2 ppm (Aedes aegypti): ≥ 80%
